Reference: patent publication US20230263826A1, “Compositions and Methods for Treatment and Prevention of Type 1 Diabetes” (The UAB Research Foundation, priority 2021, published 2023)

Test system: female NOD mice
Assay: Plasma lipidomics in FKGK18- and PBS-T-treated NOD mice that developed T1D
Assay type: in vivo, mouse
Conditions: treatment initiated at 10 days or 4 weeks of age
Experimental: FIGS. 11A-11I show a comparison of select plasma lipids in diabetic NOD mice. NOD mice were treated with PBS-Tor with FKGK18, starting at 10 days or 4 weeks of age, and sacrificed at the onset of diabetes. Plasma was prepared from these mice and processed for lipidomics analyses. The data (mean±SEM) represent pmol of each lipid species in 100 or 50 µL plasma fo LTC4 (FIG. 11A), 15-HETE (FIG. 11B), 5-HETE (FIG. 11C), PGD2 (FIG. 11D), AA (FIG. 11E), So1P/So (FIG. 11F), EET/DHET (FIG. 11G), resolving D2 (FIG. 11H), and DHA (FIG. 11I). (Statistical analyses: Students′ t-test. N=4/group.).
Next, to determine if a proinflammatory landscape persists until T1D onset, Applicants performed lipidomic analyses with plasma from FKGK18- and PBS-T-treated NOD (starting at 10 days). […] Furthermore, the ratio of So1P/So was higher in diabetic PBS-T-NOD, in comparison with nondiabetic PBS-T- or FKGK18-treated NOD (FIG. 6F). […]
Analysis of sphingolipids, eicosanoids, and fatty acids by ultra performance liquid chromatography-electrospray ionization-tandem mass spectrometry. […] Sphingolipids, eicosanoids, and fatty acids were analyzed via mass spectrometry using an AB Sciex Triple Quad 5500 Mass Spectrometer. […] The MΦ (2.75 × 10^6) were administered i.p. to 8-week-old female NOD, and diabetes incidence was recorded through weekly blood glucose monitoring.

O=C(CCCCc1ccc2ccccc2c1)C(F)(F)F [FKGK18]
plasma PGD2 relative to PBS-T (d) groups (mice that developed T1D): decrease | plasma lipids vs PBS-T in mice that developed T1D (sacrificed at onset of diabetes, all lipids except PGD2): no differences
